Measurements reported in patent EP0837859B1, “TETRAHYDROFURAN ANTIFUNGALS” (SCHERING CORPORATION, priority 1995, dated 1997).

Tested on: 11 strains of C. albicans and tropicalis
Assay: in vitro antifungal activity in EMEM (geometric mean MIC)
Format: cell-based
Settings: Candida albicans, read-out: geometric mean MICs

SMILES: CC[C@@H]([C@H](C)O)n1ncn(-c2ccc(N3CCN(c4ccc(OC[C@H]5CC[C@](Cn6cncn6)(c6ccc(F)cc6F)O5)cc4)CC3)cc2)c1=O
- MIC: ≥ 0.01 µg/mL
